Measured values from US20250289793A1, “MACROCYCLIC INHIBITORS OF ATP CITRATE LYASE” (Esperion Therapeutics, Inc., priority 2022, published 2025).

Experiments:
[1] = target: T1, ACLY (Homo sapiens (Human), UniProt P53396); assay: Human ACLY (hACLY) RF/MS activity assay; type: biochemical; conditions: 1 nM hACLY; 30 min pre-incubation; 15 μM Coenzyme A, 50 μM ATP, 50 μM citrate; CoA to Acetyl-CoA by RF/MS; read-out: RFMS IC50 GMean
Protocol: Compounds of the disclosure were evaluated for their efficacy in inhibiting hACLY using rapid fire mass spectrometry (RF/MS).
The final reaction volume for each compound was 20 μl and consisted of buffer (50 mM Hepes pH 8.0, 10 mM MgCl2, 0.003% BSA, 0.01% Brij35, 50 mM NaCl, 4 mM DTT) and 1 nM hACLY, EV12992, PP6692) using Greiner, 384 well small volume, deep well plates (Cat #784201). A two-fold dilution series with a top concentration of 10 μM was used to record a concentration response curve. Both the substrate (CoA) and product (Acetyl-CoA) were quantified, and given a ratio. […] The final DMSO-concentration was 1% (v/v). Compounds were pre-incubated for 30 min with the buffered enzyme solution at RT (20° C.), and substrate solution was added (final concentrations: 15 μM Coenzyme A, 50 μM ATP and 50 μM citrate) to initiate the enzyme reaction. The enzyme reaction was incubated for additional 30 min at RT. The reaction was quenched upon addition of 40 μl of 5% Formic acid in H2O and centrifuged (4350 rpm at 20° C. for 10 min).
Product formation was quantified using a RF/MS-based method based on mass change of CoA (substrate) to Acetyl-CoA (product).

[2] = target: T1, ACLY; assay: InCell Pulse assay (permeate HEK293 cells, bind to and stabilize ACLY); type: cell-based; conditions: HEK293 cells transfected with pICP-ACLY(FL)-ePL; 1 hour at 37° C., 55° C. heat pulse 10 minutes; read-out: InCell Pulse IC50 GMean
Protocol: HEK293 cells transfected for 24 hours with pICP-ACLY(FL)-ePL (3 μg DNA per T25 flask) using FuGene HD (Promega Corp.) were harvested and cryopreserved. On the day of the assay, the frozen transfected cells were thawed at 37° C., and the storage medium (DMEM with 2 mM L-Glutamine, 10% FBS and a final concentration of DMSO 10%) was exchanged with assay medium (OptiMEM; Gibco™, ThermoFischer Scientific). Compounds were 3-fold serially diluted in DMSO over 11-point concentration range. 100 nL of the corresponding dilutions were spotted into the assay plate (Greiner AG; 384 Well, PP, Small Volume, Deep Well, Natural, cat. no. 784201) followed by the addition of 20 μL of cell suspension adjusted with assay medium to 7.5E4 cells/mL. Subsequently, the plates were sealed and incubated for 1 hour at 37° C. Afterwards, the plates were fixed upside down in a rack and incubated in a 55° C. water bath for 10 minutes. Following this heat pulse step, plates were allowed to reach room temperature for 10 minutes and centrifuged for a few seconds at 1000 rpm and room temperature. 25 μL EA detection solution (working solution: 0.0167× InCell EA Reagent, 0.15× InCell Dilution Buffer, 0.167× InCell Lysis Buffer; 0.667× InCell Substrate Reagent; InCell Hunter Detection kit; Eurofins DiscoverX; cat. no. 96-0079) were added to each well. Afterwards, 42 μL were transferred from the assay plate to the detection plate (Corning Inc., 384-well Low Flange Black Flat Bottom Polystyrene NBS Microplate, cat. no. 3575), followed by an incubation for 1 hour at room temperature, a centrifugation step for 1 minute at 1000 rpm and the detection of the luminescence signal using an EnVision microplate reader (Perkin Elmer Inc.). Concentration-response curve-fitting and IC50 determination was performed using Evotec's in-house evaluation software APlus with a four-parameter non-linear regression fit model. Data was normalized to 0.5% (final concentration) DMSO as low/negative control and 1 μM (final concentration) NDI-094311 as high/positive control.

T1 sequence (P53396 whole entry): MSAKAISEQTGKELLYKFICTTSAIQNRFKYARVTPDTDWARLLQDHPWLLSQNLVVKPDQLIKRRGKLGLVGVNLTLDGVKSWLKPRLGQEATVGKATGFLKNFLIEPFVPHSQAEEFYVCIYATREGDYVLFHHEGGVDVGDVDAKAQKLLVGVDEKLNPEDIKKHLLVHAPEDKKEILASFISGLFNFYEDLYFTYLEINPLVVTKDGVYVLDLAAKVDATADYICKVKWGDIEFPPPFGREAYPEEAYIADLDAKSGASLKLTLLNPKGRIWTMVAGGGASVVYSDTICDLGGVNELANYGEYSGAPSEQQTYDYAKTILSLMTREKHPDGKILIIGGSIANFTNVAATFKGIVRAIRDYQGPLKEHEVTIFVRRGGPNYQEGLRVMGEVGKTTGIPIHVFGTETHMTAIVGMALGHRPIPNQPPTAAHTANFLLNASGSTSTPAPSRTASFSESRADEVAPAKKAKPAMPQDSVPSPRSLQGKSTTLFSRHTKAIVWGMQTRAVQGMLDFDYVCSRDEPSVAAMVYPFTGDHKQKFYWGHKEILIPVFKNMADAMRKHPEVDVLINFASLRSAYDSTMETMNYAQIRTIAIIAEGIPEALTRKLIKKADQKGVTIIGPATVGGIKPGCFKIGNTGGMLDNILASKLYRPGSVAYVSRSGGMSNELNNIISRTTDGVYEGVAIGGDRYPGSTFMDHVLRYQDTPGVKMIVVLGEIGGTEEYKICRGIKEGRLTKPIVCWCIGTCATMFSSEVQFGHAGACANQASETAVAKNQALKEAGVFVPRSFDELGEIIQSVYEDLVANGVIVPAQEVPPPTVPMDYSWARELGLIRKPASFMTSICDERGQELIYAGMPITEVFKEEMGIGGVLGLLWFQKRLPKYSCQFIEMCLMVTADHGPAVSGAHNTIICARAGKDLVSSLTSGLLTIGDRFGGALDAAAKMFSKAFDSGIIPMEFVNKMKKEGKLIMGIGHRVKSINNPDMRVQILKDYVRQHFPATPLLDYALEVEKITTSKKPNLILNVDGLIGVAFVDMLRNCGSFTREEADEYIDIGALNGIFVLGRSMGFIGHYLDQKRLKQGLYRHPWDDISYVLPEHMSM

Row | Structure (SMILES) | IC50 [1] [nM] | IC50 [2] [nM]
1 | Cn1cc2cc(c1=O)S(=O)(=O)Nc1cc(c(F)cc1F)-c1ccccc1OCCOC2=O [Compound 35, 21,23-difluoro-15-methyl-18,18-dioxo-8,11-dioxa-18λ6-thia-15,19-diazatetracyclo[18.3.1.113,17.02,7]pentacosa-1(23),2(7),3,5,13,17(25),20(24),21-octaene-12,16-dione] | ≥ 10000 | ≥ 50000
2 | O=C1OCCOc2ccc(F)cc2-c2ccc(F)c(c2)NS(=O)(=O)c2cc1cc(Cl)c2O [Compound 46, 15-chloro-4,21-difluoro-16-hydroxy-18,18-dioxo-8,11-dioxa-18λ6-thia-19-azatetracyclo[18.3.1.113,17.02,7]pentacosa-1(23),2(7),3,5,13,15,17(25),20(24),21-nonaen-12-one] | < 20 | < 300
3 | O=C1OCCc2ccccc2-c2ccc(F)c(c2)NS(=O)(=O)c2cc1cc(Cl)c2O [Compound 72, 14-chloro-20-fluoro-15-hydroxy-17,17-dioxo-10-oxa-17λ6-thia-18-azatetracyclo[17.3.1.112,16.02,7]tetracosa-1(22),2(7),3,5,12,14,16(24),19(23),20-nonaen-11-one] | < 20 | < 300
4 | O=C1OCCc2cc(F)ccc2-c2ccc(F)c(c2)NS(=O)(=O)c2cc1cc(Cl)c2O [Compound 73, 14-chloro-5,20-difluoro-15-hydroxy-17,17-dioxo-10-oxa-17λ6-thia-18-azatetracyclo[17.3.1.112,16.02,7]tetracosa-1(22),2(7),3,5,12,14,16(24),19(23),20-nonaen-11-one] | 20 to 100 | < 300
5 | O=C1OCC2Cc3cccc(c3O2)-c2cc(c(F)cc2F)NS(=O)(=O)c2cc1cc(Cl)c2O (stereo not shown) [Compound 39, 15-chloro-21,23-difluoro-16-hydroxy-18,18-dioxo-8,11-dioxa-18λ6-thia-19-azapentacyclo[18.3.1.16,9.113,17.02,7]hexacosa-1(23),2(7),3,5,13,15,17(25),20(24),21-nonaen-12-one] | < 20 | < 300
6 | O=C1NCCc2ccccc2-c2cc(c(F)cc2F)NS(=O)(=O)c2cc1cc(Cl)c2O [Compound 30, 14-chloro-20,22-difluoro-15-hydroxy-17lambda6-thia-10,18-diazatetracyclo[17.3.1.1^12,16.0^2,7]tetracosa-1(23),2,4,6,12,14,16(24),19,21-nonaene-11,17,17-trione] | 20 to 100 | 1000 to 50000
7 | O=C1OCCOc2ccccc2-c2ccc(F)c(c2)NS(=O)(=O)c2cc1ncc2O [Compound 66, 21-fluoro-16-hydroxy-18,18-dioxo-8,11-dioxa-18λ6-thia-14,19-diazatetracyclo[18.3.1.113,17.02,7]pentacosa-1(24),2,4,6,13,15,17(25),20,22-nonaen-12-one] | 20 to 100 | –
8 | O=C1OCC2Cc3cccc(c3O2)-c2cc(c(F)cc2F)NS(=O)(=O)c2cc1cc(Cl)c2O (single isomer, unassigned) [Compound 41, 15-chloro-21,23-difluoro-16-hydroxy-18,18-dioxo-8,11-dioxa-18λ6-thia-19-azapentacyclo[18.3.1.16,9.113,17.02,7]hexacosa-1(23),2(7),3,5,13,15,17(25),20(24),21-nonaen-12-one] | – | < 300

Next, values leading:

Row | IC50 [1] [nM] | IC50 [2] [nM] | Structure (SMILES)
9 | < 20 | < 300 | O=C1OCCc2ccccc2-c2cc(F)c(F)c(c2)NS(=O)(=O)c2cc1cc(Cl)c2O [Compound 80, 14-chloro-20,21-difluoro-15-hydroxy-17,17-dioxo-10-oxa-17λ6-thia-18-azatetracyclo[17.3.1.112,16.02,7]tetracosa-1(23),2,4,6,12,14,16(24),19,21-nonaen-11-one]
10 | 20 to 100 | 300 to 1000 | N#Cc1ccc2c(c1)-c1cc(c(F)cc1F)NS(=O)(=O)c1cc(cc(Cl)c1O)C(=O)OCCO2 [Compound 28, 15-chloro-21,23-difluoro-16-hydroxy-12,18,18-trioxo-8,11-dioxa-18lambda6-thia-19-azatetracyclo[18.3.1.1^13,17.0^2,7]pentacosa-1(24),2,4,6,13,15,17(25),20,22-nonaene-4-carbonitrile]
11 | < 20 | 300 to 1000 | COc1ccc2cc1NS(=O)(=O)c1cc(cc(Cl)c1O)C(=O)OCCOc1ccccc1-2 [Compound 26, 15-chloro-16-hydroxy-21-methoxy-8,11-dioxa-18lambda6-thia-19-azatetracyclo[18.3.1.1^13,17.0^2,7]pentacosa-1(24),2,4,6,13,15,17(25),20,22-nonaene-12,18,18-trione]
12 | < 20 | 300 to 1000 | O=C1OCCOc2ccccc2-c2ccc(OC(F)F)c(c2)NS(=O)(=O)c2cc1cc(Cl)c2O [Compound 55, 15-chloro-21-(difluoromethoxy)-16-hydroxy-18,18-dioxo-8,11-dioxa-18λ6-thia-19-azatetracyclo[18.3.1.113,17.02,7]pentacosa-1(23),2(7),3,5,13(25),14,16,20(24),21-nonaen-12-one]
13 | 20 to 100 | 300 to 1000 | CC1CCOC(=O)c2cc(Cl)c(O)c(c2)S(=O)(=O)Nc2cc(c(F)cc2F)-c2ccccc21 (stereo not shown) [Compound 43, 15-chloro-21,23-difluoro-16-hydroxy-8-methyl-18,18-dioxo-11-oxa-18λ6-thia-19-azatetracyclo[18.3.1.113,17.02,7]pentacosa-1(23),2(7),3,5,13,15,17(25),20(24),21-nonaen-12-one]
14 | 100 to 10000 | 1000 to 50000 | CC1CCOC(=O)c2cc(Cl)c(O)c(c2)S(=O)(=O)Nc2cc(c(F)cc2F)-c2ccccc21 (single isomer, unassigned) [Compound 44, 15-chloro-21,23-difluoro-16-hydroxy-8-methyl-18,18-dioxo-11-oxa-18λ6-thia-19-azatetracyclo[18.3.1.113,17.02,7]pentacosa-1(23),2(7),3,5,13,15,17(25),20(24),21-nonaen-12-one]
15 | < 20 | < 300 | O=C1OCc2ccccc2-c2cc(F)c(F)c(c2)NS(=O)(=O)c2cc1cc(Cl)c2O [Compound 82, 13-chloro-19,20-difluoro-14-hydroxy-16,16-dioxo-9-oxa-16λ6-thia-17-azatetracyclo[16.3.1.111,15.02,7]tricosa-1(21),2,4,6,11(23),12,14,18(22),19-nonaen-10-one]
16 | 100 to 10000 | ≥ 50000 | O=C1OCCOc2ccccc2-c2ccc(F)c(c2F)NS(=O)(=O)c2cc1cc(Cl)c2O [Compound 51, 15-chloro-21,24-difluoro-16-hydroxy-18,18-dioxo-8,11-dioxa-18λ6-thia-19-azatetracyclo[18.3.1.113,17.02,7]pentacosa-1(23),2(7),3,5,13(25),14,16,20(24),21-nonaen-12-one]
17 | ≥ 10000 | ≥ 50000 | O=C1OCCOc2ccccc2-c2cc(c(F)cc2F)NS(=O)(=O)c2cc(O)cc1c2 [Compound 65, 21,23-difluoro-15-hydroxy-18,18-dioxo-8,11-dioxa-18λ6-thia-19-azatetracyclo[18.3.1.113,17.02,7]pentacosa-1(24),2,4,6,13,15,17(25),20,22-nonaen-12-one]
18 | ≥ 10000 | – | O=C1NCCOc2ccccc2-c2cc3c(cc2F)CCN3C(=O)c2cc1ccc2O [Compound 11, 24-fluoro-16-hydroxy-8-oxa-11,19-diazapentacyclo[17.5.2.1^13,17.0^2,7.0^22,26]heptacosa-1(24),2,4,6,13,15,17(27),22,25-nonaene-12,18-dione]
19 | ≥ 10000 | – | COc1c(Cl)cc2cc1S(=O)(=O)Nc1cc(ccc1O)-c1ccccc1OCCOC2=O [Compound 25, 15-chloro-21-hydroxy-16-methoxy-8,11-dioxa-18lambda6-thia-19-azatetracyclo[18.3.1.1^13,17.0^2,7]pentacosa-1(24),2,4,6,13,15,17(25),20,22-nonaene-12,18,18-trione]
